Values of other authors in patent publication US4571403A, “Antianginal medicated compound” (Institut Organicheskoi Khimii Imeni N.D. Zelinskogo …, priority 1984, dated 1986).
Where a name gives a salt, the structure may show the parent alone.

System: myocardium / blood circulation
Details: prior art; cited from earlier work

Compound	incompatibility with other pharmaceutical preparations	side effects	adrenergic effect	blood flow / blood supply of ischemized zones of myocardium	contractability of the heart (inotropic effect)	duration of action	therapeutic range	contraindications	systemic arterial pressure
O=[N+]([O-])OCC(CO[N+](=O)[O-])O[N+](=O)[O-] [Trinitroglycerol, trinitroglycerol]	incompatibility with some other pharmaceutical preparations	bad tolerance of the preparation by certain categories of patients accompanied by strong headaches							
CCCCc1oc2ccccc2c1C(=O)c1cc(I)c(OCCN(CC)CC)c(I)c1 [Cardaron, [2-butyl-3-benzofuranyl]-[4-(2-diethylaminoethoxy)-3,5-diodophenyl]ketone hydrochloride]		affection of eye cornea	antiadrenergic preparations with a mixed effect	no selective effect on blood supply of the ischemized zone of myocardium	negative inotropic effect on myocardium	short duration of its action	narrow therapeutic range		
O=C(CCN1CCN2CCCC2C1)N1c2ccccc2Sc2ccc(Cl)cc21 (centres unmarked) [nonachlazine]			β-adrenostimulating component of the effect on myocardium					cannot be administered in the case of kidney and liver diseases	lasting hypertension of the arterial pressure
